Measured values taken from patent publication US20030220482A1, “Novel peptide antagonist of CXCR4 derived from the N-terminus of the viral chemokine vMIP-II” (priority 2000, published 2003).
Entries after “also recorded” stand apart in the source; their conditions may differ. Peptide text beside a SMILES is read from it.

Key:
CXCR4 [1] = target: T1, CXCR4 (Homo sapiens, UniProt P61073); test: anti-CXCR4 mAb 12G5 competitive binding (flow cytometry, Sup T1 cells); parameters: endogenous in cells; conditions: relative to SDF-1
T1 sequence (P61073 whole entry): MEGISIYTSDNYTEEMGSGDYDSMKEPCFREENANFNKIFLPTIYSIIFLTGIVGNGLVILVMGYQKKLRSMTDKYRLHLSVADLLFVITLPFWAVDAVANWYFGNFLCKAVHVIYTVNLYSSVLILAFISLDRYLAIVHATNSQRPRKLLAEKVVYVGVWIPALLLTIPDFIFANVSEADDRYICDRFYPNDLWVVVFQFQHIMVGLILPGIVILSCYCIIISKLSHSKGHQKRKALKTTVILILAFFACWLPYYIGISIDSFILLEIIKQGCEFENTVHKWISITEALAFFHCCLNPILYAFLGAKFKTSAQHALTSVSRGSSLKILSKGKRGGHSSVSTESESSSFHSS
Procedure: Sup T1 cells (2×10^5) were washed with FACS buffer (0.5% bovine serum albumin, 0.05% sodium azide in PBS) and incubated with an anti-CXCR4 monoclonal antibody (mAb) 12G5 (10 μg/ml) for 30 min at 4° C. After washing with FACS buffer, cells were incubated with 10 μg FITC conjugated goat anti-mouse IgG (Southern Biotechnology Associates, Inc. Birmingham, Ala.) for 30 min at 4° C. After washing twice with FACS buffer, cells were fixed in the fixing buffer (2% palaformaldehyde in PBS) and then analyzed on a FACScan flow cytometer (Coulter EPICS Elite, Coolten Corp., Hialeah, Fla.).

CCR5 [2] = target: T2, CCR5 (Homo sapiens, UniProt P51681); test: Intracellular calcium influx in CCR5 transfected 293 cells; type: cell-based
T2 construct: expressed in transfected cells; host or cells: 293 cells
T2 sequence (P51681 whole entry): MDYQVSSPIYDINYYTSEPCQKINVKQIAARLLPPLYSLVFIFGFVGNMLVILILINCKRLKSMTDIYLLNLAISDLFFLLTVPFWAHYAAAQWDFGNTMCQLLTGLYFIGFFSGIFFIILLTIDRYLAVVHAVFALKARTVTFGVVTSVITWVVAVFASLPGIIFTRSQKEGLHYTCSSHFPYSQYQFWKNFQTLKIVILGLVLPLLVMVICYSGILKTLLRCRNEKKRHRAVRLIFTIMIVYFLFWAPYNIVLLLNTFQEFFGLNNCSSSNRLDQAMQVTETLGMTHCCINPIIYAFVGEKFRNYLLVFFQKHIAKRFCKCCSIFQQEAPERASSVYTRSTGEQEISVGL
Procedure: (§1) Sup T1 cells and CCR5 transfected 293 cells were used to measure the intracellular calcium influx. [Ca^2+]i was measured using excitation at 340 and 380 nm on a fluorescence spectrometer (Perkin Elmer LS50). Calibration was performed using 10% Triton X-100 for total fluorophore release and 0.5 M EGTA to chelate free Ca^2+. Intracellular Ca^2+ concentrations were calculated by using the fluorescence spectrometer measurement program.

Sup T1 cells = test: Chemotaxis of Sup T1 cells induced by SDF-1; type: cell-based
Procedure: Migration of Sup T1 cells was assessed in disposable Transwell trays (Costar, Cambridge, Mass.) with 6.5 -mm diameter chambers and membrane pore size of […]. […] For peptide inhibition experiments, the cells were preincubated with various concentrations of the peptide for 15 min at 25° C. The peptide at the same concentration was also added to the lower well. After incubation at 37° C. and 5% CO2 for 4 h, cells that migrated to the lower well were counted. Chemotactic migration was determined by subtraction of cells migrated in medium alone (Blank control experiment).

CXCR4 [3] = target: T1, CXCR4; test: Intracellular calcium influx in Sup T1 cells; type: cell-based; parameters: endogenous in cells
Procedure: as §1

CCR5 [4] = target: T2, CCR5; test: 125I-MIP-1β competitive binding to CCR5 (CCR5-transfected 293 cells); conditions: competitive binding with radiolabeled MIP-1β
From the text: ^125I-MIP-1β Competitive Binding to CCR5
Following a similar experimental procedure as described above, 293 cells transfected with CCR5 and ^125I-MIP-1β were used to determine the specific binding activity of peptides to CCR5.

CXCR4 [5] = target: T1, CXCR4; test: Gene reporter cell-cell fusion assay, HIV-1 coreceptor function of CXCR4; type: cell-based; parameters: expressed in transfected cells; host or cells: NIH/3T3 cells; conditions: for inhibition of T- and dual-tropic HIV-1 gp120-mediated cell-cell fusion via CXCR4 (in words): vSC60 (BH10) T-tropic and 89.6 dual-tropic isolates
CCR5 [6] = target: T2, CCR5; test: Gene reporter cell-cell fusion assay, HIV-1 coreceptor function of CCR5; type: cell-based
CXCR4 [7] = target: T1, CXCR4; test: CXCR4 internalization; type: cell-based; parameters: CEM-T4 cells were harvested and washed twice with PBS; endogenous in cells; host or cells: CEM-T4 cells
CXCR4 [8] = target: T1, CXCR4; test: 125I-SDF-1α competitive binding to CXCR4 (CEM-T4 cells); parameters: endogenous in cells; host or cells: CEM-T4 cells; conditions: for CXCR4 binding (in words): 125I-SDF-1α competitive binding, FIG. 1
Procedure: ^125I-SDF-1α Competitive Binding to CXCR4
CEM-T4 cells were harvested and washed twice with PBS. […] Nonspecific binding was determined by the addition of 100 nM unlabeled SDF-1α Samples were incubated for 60 min at room temperature. The incubation was terminated by separating the cells from the binding buffer by centrifugation and washing once with 500 μl of cold binding buffer. Bound ligands were quantitated by counting γ emissions.

CC(C)C[C@H](NC(=O)[C@H](CS)NC(=O)[C@H](CS)NC(=O)[C@H](CCCCN)NC(=O)[C@H](CC(=O)O)NC(=O)[C@@H]1CCCN1C(=O)[C@H](CCCNC(=N)N)NC(=O)[C@H](Cc1c[nH]cn1)NC(=O)[C@H](Cc1c[nH]c2ccccc12)NC(=O)[C@H](CO)NC(=O)[C@H](C)NC(=O)CNC(=O)[C@@H](N)CC(C)C)C(=O)NCC(=O)N[C@@H](Cc1ccc(O)cc1)C(=O)N[C@@H](CCC(N)=O)C(=O)N[C@@H](CCCCN)C(=O)N[C@@H](CCCNC(=N)N)C(=O)N1CCC[C@H]1C(=O)N[C@@H](CC(C)C)C(=O)N1CCC[C@H]1C(N)=O [V1] (H-LGASWHRPDKCCLGYQKRPLP-NH2; N-terminus and C-terminus assumed)
fold less potent than SDF-1, mAb 12G5 competition (CXCR4 [1]): about 33 fold
signaling activity via CCR5 (calcium influx, in words) (CCR5 [2]): neither displayed signaling activity
blocking of signal induced by MIP-1β via CCR5 (in words) (CCR5 [2]; MIP-1β 100 nM): nor blocked the signal
inhibition of chemotactic activity of SDF-1 (in words) (Sup T1 cells): inhibit the chemotactic activity of SDF-1 in a concentration dependent manner
blocking of SDF-1 signal (calcium influx, in words) (CXCR4 [3]; peptide 200 μM, SDF-1 100 nM): almost completely blocked SDF-1 signal
signaling activity via CXCR4 (calcium influx, in words) (CXCR4 [3]; various concentrations): did not show any signaling activity
CCR5 binding (in words) (CCR5 [4]): did not display any interaction
inhibition of T- and dual-tropic HIV-1 gp120-mediated cell-cell fusion via CXCR4 (in words) (CXCR4 [5]): showed inhibition
effect on M-tropic HIV-1 gp120-mediated cell-cell fusion via CCR5 (in words) (CCR5 [6]): displayed no effect
induction of CXCR4 internalization (in words) (CXCR4 [7]): induction of CXCR4 internalization
fold less potent than SDF-1, 125I-SDF-1α competition (CXCR4 [8]; relative to SDF-1): ~70 fold

HRPDKCCLGYQKR (v-MIPII derived peptide) [V2, VMIP-II, 6-18]
effect on CCR5 signal transduction (in words) (CCR5 [2]): did not show any effect
effect on CXCR4 signal transduction (in words) (CXCR4 [3]): did not show any effect
CCR5 binding (in words) (CCR5 [4]): does not bind
inhibition of T- and dual-tropic HIV-1 gp120-mediated cell-cell fusion via CXCR4 (in words) (CXCR4 [5]): did not show any activity
effect on M-tropic HIV-1 gp120-mediated cell-cell fusion via CCR5 (in words) (CCR5 [6]): displayed no effect
CXCR4 binding (in words) (CXCR4 [8]): significant loss in CXCR4 binding; also recorded: does not bind

LGASWHRPDK (v-MIPII derived peptide) [V3, VMIP-II, 1-10]
CXCR4 binding (in words) (CXCR4 [8]): retained some activity

SDF-1: Recombinant human chemokine, Stromal cell Derived Factor-1, a natural CXCR4 ligand, used as control [reference compound]
inhibition of cell-cell fusion (CXCR4 [5]; at 200 nM): 45%
